Results reported in patent US20240368133A1, “Compounds for the Treatment of Pain, in Particular, Neuropathic Pain, and/or Other Diseases or Disorders that are Associated with AT2R and/or AT2R Mediated Signaling” (Confo Therapeutics N.V., priority 2021, published 2024).

Assays:
Assay type in all cases: in vitro ADME
[1] = Liver microsomal stability, rat; conditions: male, pH 7.4, liver microsomes
Description: Mouse hepatic microsomes were isolated from pooled (50), perfused livers of male Balb/c mice. Rat hepatic microsomes were isolated from pooled (15), perfused livers of male Wistar rats. Isolation was performed according to the standard protocol (Hill, J. R. in Current Protocols in Pharmacology 7.8.1-7.8.11, Wiley Interscience, 2003). The batches of microsomes were tested for quality control using Imipramine, Propranolol and Verapamil as reference compounds.
Microsomal incubations were carried out in 96-well plates in 5 aliquots of 40 μL each (one for each time point). Liver microsomal incubation medium contained PBS (100 mM, pH 7.4), MgCl2 (3.3 mM), NADPH (3 mM), glucose-6-phosphate (5.3 mM), glucose-6-phosphate dehydrogenase (0.67 units/ml) with 0.42 mg of liver microsomal protein per ml. Control incubations were performed replacing the NADPH-cofactor system with PBS. Test compound (2 μM, final solvent concentration 1.6%) was incubated with microsomes at 37° C., shaking at 100 rpm. Incubations were performed in duplicates. Five time points over 40 minutes have been analyzed. The reactions were stopped by adding 12 volumes of 90% acetonitrile-water to incubation aliquots, followed by protein sedimentation by centrifuging at 5500 rpm for 3 minutes. […]. Supernatants were analyzed using the HPLC system coupled with tandem mass spectrometer (API3000 PE Sciex). Acquisition and analysis of the data were performed using Analyst 1.5.2 software (PE Sciex). The elimination constant (kel), half-life (t½) and intrinsic clearance (Clint) were determined in plot of […] versus time, using linear regression analysis:
Mouse hepatic microsomes were isolated from pooled, perfused livers of male CD1 mice. Rat hepatic microsomes were isolated from pooled, perfused livers of male Sprague Dawley rats. Dog hepatic microsomes were isolated from pooled, perfused livers of male Beagle dogs. The batches of microsomes were tested for quality control using Testosterone, Propranolol and Caffeine as reference compounds.
A 10 mM stock solution of compound in DMSO is diluted three-fold in DMSO. This pre-diluted compound solution is then further diluted to 2 μM in a 50 mM phosphate buffer (PBS, pH 7.4) and pre-warmed at 37° C. This compound dilution is mixed F2 with microsomal/cofactor mix at 37° C. under shaking at 300 rpm. Final reaction conditions are: 100 μL incubation volume, 1 μM of test compound (in duplicate), <0.1% DMSO, 0.5 mg/mL microsomes, 0.6 U/mL Glucose-6-phosphate-dehydrogenase (G6PDH, Roche, 10127671001), 3.3 mM MgCl2 (Sigma, M2670), 3.3 mM glucose-6-phosphate (Sigma, G-7879) and 1.3 mM NADP+ (Sigma, N-0505).
After 60 min of incubation at 300 rpm and 37° C., the reaction was stopped with 3 volumes of STOP solution (acetonitrile/MeOH 2/1 with diclofenac as internal standard). For the time point zero, 3 volumes of STOP solution were added to the compound dilution before the microsome mix was added. Six time points over 60 minutes have been analyzed. The samples of all time points were centrifuged, filtered and the supernatant analyzed by LCMS/MS (systems API4000).
The instrument responses (peak areas/IS peak area) were referenced to the zero time-point samples (considered as 100%) in order to determine the percentage of compound remaining.
Testosterone (1 μM) and Propranolol and Caffeine (1 μM) were used as reference compounds, being unstable and stable compounds respectively. If the microsomal stability values for these controls are not in the range determined by the historical data, the assay is not validated. The solubility of the compound in the final test concentration in 50 mM buffer pH 7.4 is checked by microscope to indicate whether precipitation is observed or not. If a precipitate is observed, no data of microsomal stability is generated.

CYP2C9 = CYP2C9 (Homo sapiens (Human), UniProt P11712); assay: CYP inhibition, CYP2C9; conditions: test compound at 10 μM, read-out: % Inhibition (PIN) 2C9
Description: (§1) The aim of this assay is to determine the inhibitory potential of a test compound. A major concern for drug-drug-interaction is cytochrome P450 inhibition. Reversible CYP inhibition was determined in human liver microsomes using specific probe substrates for human cytochrome P450 isoenzymes CYP1A2, 2C9, 2C19, 2D6 and 3A4.
The potential for CYP450 inhibition was assessed by performing in vitro inhibition studies using fluorogenic CYP450 substrates with the corresponding CYP450 enzymes and NADPH regeneration system (Vivid CYP450 Screening Kits) with some minor changes to the manufacturer's protocols. The fluorescent signal produced from reaction is directly proportional to the cytochrome P450 activity. In the cases when tested compounds interfere with the CYP450 enzyme-substrate reaction, the fluorescent signal decreases. […] After 10 minutes pre-incubation, the enzymatic reaction was initiated by the addition of a mix of NADPH and the appropriate CYP450 substrates. The plate was incubated for the desired reaction time (25 min for CYP1A2, CYP2C9, CYP2D6, and CYP3A4, 60 min for CYP2C19) after which Stop Reagent was added and fluorescence measured using SpectraMax Paradigm Multi-Mode Microplate Reader. All test points were performed in quadruplicates at concentration 10 μM (1% DMSO).
A 10 mM stock solution of test compound is prepared in methanol. This stock is further serially diluted 1:3 in methanol and then added to mixture containing 50 mM potassium phosphate buffer pH7.4, human liver microsomes (BD Gentest) and probe substrate. […]
(§2) After incubation at 37° C., the reaction (aliquot of 50 μL) is terminated with 150 μL CH3CN:MeOH (2:1) solution with internal standard (warfarin for 2C9, diclofenac for all other tested isoforms). Samples are centrifuged and the supernatant fractions analyzed by LC-MS/MS.
(§3) The instrument responses (ratio of test compound and internal standard peak areas) are referenced to those for solvent controls (assumed as 100%) in order to determine the percentage reduction in probe metabolism. Percent of control activity vs. concentration plots are generated and fitted using GraphPad Prism software to generate IC50.

CYP2C19 = CYP2C19 (Homo sapiens (Human), UniProt P33261); assay: CYP inhibition, CYP2C19; conditions: test compound at 10 μM, read-out: % Inhibition (PIN) 2C19
Description: as §1, with “3A4. […]” for “3A4.”
A 10 mM stock solution of test compound is prepared in methanol. This stock is further serially diluted 1:3 in methanol and then added to mixture containing 50 mM potassium phosphate buffer pH7.4, human liver microsomes (BD Gentest) and probe substrate. After pre-warming 5 min at 37° C., the reaction is started by adding co-factor mix ([…] glucose-6-phosphate, 1.7 mg/mL NADP, 6 U/mL of glucose-6-phosphate dehydrogenase), resulting in a final concentration of test compound at 10 μM (2% MeOH).
Final concentrations of co-factor mix components are as follows: 1.56 mg/mL glucose-6-phosphate, 0.34 mg/mL NADP, 1.2 U/mL of glucose-6-phosphate dehydrogenase.
as §2, §3

Sequence of CYP2C9 (P11712 whole entry): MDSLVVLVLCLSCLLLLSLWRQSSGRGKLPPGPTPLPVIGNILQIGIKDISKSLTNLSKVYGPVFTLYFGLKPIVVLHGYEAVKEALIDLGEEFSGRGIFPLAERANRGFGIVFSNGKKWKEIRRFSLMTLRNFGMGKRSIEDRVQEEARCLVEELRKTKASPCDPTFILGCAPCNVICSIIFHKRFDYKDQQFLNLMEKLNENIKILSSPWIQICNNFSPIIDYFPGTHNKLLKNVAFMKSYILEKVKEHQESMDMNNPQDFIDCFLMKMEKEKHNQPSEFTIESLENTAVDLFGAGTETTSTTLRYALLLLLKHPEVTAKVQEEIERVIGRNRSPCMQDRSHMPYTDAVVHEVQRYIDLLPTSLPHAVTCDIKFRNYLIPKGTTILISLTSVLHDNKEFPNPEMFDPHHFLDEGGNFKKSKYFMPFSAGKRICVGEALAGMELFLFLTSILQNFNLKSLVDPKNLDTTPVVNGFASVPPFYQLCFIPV
Sequence of CYP2C19 (P33261 whole entry): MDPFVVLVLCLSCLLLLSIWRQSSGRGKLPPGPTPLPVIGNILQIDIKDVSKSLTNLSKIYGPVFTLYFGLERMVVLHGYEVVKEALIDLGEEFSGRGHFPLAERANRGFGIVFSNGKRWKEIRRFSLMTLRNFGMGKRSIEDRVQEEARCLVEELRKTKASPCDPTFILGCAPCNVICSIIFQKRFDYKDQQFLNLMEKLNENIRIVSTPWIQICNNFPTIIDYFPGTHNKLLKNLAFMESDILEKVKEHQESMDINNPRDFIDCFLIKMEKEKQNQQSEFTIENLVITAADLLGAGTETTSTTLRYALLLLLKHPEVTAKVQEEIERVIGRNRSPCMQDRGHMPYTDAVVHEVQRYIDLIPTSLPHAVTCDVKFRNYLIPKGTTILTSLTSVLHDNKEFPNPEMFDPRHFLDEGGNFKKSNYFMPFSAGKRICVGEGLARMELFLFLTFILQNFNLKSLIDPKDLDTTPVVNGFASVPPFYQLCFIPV

| microsomal CLint [1] | inhibition at 10 µM (CYP2C9) | inhibition at 10 µM (CYP2C19) | SMILES |
| --- | --- | --- | --- |
| 33 µL/min/mg |  |  | CCCCOC(=O)NS(=O)(=O)c1ccc(C(F)(F)F)cc1N1CCN(Cc2nc3ccccc3n2C)CC1 [Compound A-09, butyl N-[2-[4-[(1-methylbenzimidazol-2-yl)methyl]piperazin-1-yl]-4-(trifluoromethyl)phenyl]sulfonylcarbamate] |
| 28 µL/min/mg | 46.1% | 38.6% | CCCCNC(=O)NS(=O)(=O)c1ccc(C(F)(F)F)cc1N1CCN(Cc2nc3ccccc3n2C)CC1 [Compound A-10, 1-butyl-3-[2-[4-[(1-methylbenzimidazol-2-yl)methyl]piperazin-1-yl]-4-(trifluoromethyl)phenyl]sulfonyl-urea] |
| 23 µL/min/mg |  |  | CCCCNC(=O)NS(=O)(=O)c1ccc(C)cc1N1CCN(Cc2nc3ccccc3n2C)CC1 [Compound A-12, 1-butyl-3-[4-methyl-2-[4-[(1-methylbenzimidazol-2-yl)methyl]piperazin-1-yl]phenyl]sulfonyl-urea] |
| 28 µL/min/mg |  |  | CC(C)Cc1ccc(-c2nn[nH]n2)c(N2CCN(Cc3nc4ccccc4n3C)CC2)c1 [Compound A-20, 2-[[4-[5-isobutyl-2-(2H-tetrazol-5-yl)-phenyl]piperazin-1-yl]methyl]-1-meth-yl-benzimidazole] |
| 7 µL/min/mg | 36.6% | 30.9% | CC(C)Oc1ccc(-c2nn[nH]n2)c(N2CCN(Cc3nc4ccccc4n3C)CC2)c1 [Compound A-24, 2-[[4-[5-isopropoxy-2-(2H-tetrazol-5-yl)phenyl]piperazin-1-yl]methyl]-1-methyl-benzimidazole] |
| 5 µL/min/mg | 73% | 73% | CC(C)Cc1ccc(-c2nn[nH]n2)c(N2CCN(Cc3nc4ccccc4c(=O)[nH]3)CC2)c1 [Compound A-31, 2-[[4-[5-isobutyl-2-(2H-tetrazol-5-yl)phenyl]piperazin-1-yl]methyl]-3H-quinazolin-4-one] |
| 13 µL/min/mg | 62.4% | 48.6% | CC(C)Oc1ccc(-c2nn[nH]n2)c(N2CCN(Cc3nc4ccccc4c(=O)[nH]3)CC2)c1 [Compound A-32] |
| 1 µL/min/mg |  |  | CC(C)Oc1ccc(-c2nn[nH]n2)c(N2CCN(Cc3nc4ccccc4s3)CC2)c1 [Compound A-51, 2-[[4-[5-isoprop-oxy-2-(2H-tetrazol-5-yl)phenyl]piper-azin-1-yl]methyl]-1,3-benzothiazole] |
| 4 µL/min/mg | 32.1% | -4.12% | Cc1cc(CN2CCN(c3cc(CC(C)C)ccc3-c3nn[nH]n3)CC2)no1 [Compound A-82, 3-[[4-[5-isobutyl-2-(2H-tetrazol-5-yl)phenyl]piperazin-1-yl]methyl]-5-methyl-isoxazole] |
| 3 µL/min/mg | 3.37% | 6.38% | CC(C)Cc1ccc(-c2nn[nH]n2)c(N2CCN(Cc3nccn3C)CC2)c1 [Compound A-83, 1-[5-isobutyl-2-(2H-tetrazol-5-yl)-phenyl]-4-[(1-meth-ylimidazol-2-yl)-methyl]piperazine] |
| 7 µL/min/mg | 56.2% | 18.9% | CC(C)Cc1ccc(-c2nn[nH]n2)c(N2CCN(Cc3ccnn3C)CC2)c1 [Compound A-84, 1-[5-isobutyl-2-(2H-tetrazol-5-yl)phenyl]-4-[(1-methylpyrazol-5-yl)methyl]piperazine] |
| 7 µL/min/mg | 15.8% | 17.6% | CC(C)Cc1ccc(-c2nn[nH]n2)c(N2CCN(Cc3ncccn3)CC2)c1 [Compound A-88] |
| 4 µL/min/mg | 28.4% | 27.9% | CC(C)Cc1ccc(-c2nn[nH]n2)c(N2CCN(Cc3cccnn3)CC2)c1 [Compound A-90, 3-[[4-[5-isobutyl-2-(2H-tetrazol-5-yl)phenyl]piperazin-1-yl]methyl]pyridazine] |
| 12 µL/min/mg | 17.2% | 8.93% | CC(C)Cc1cc(F)c(-c2nn[nH]n2)c(N2CCN(Cc3cccnn3)C(C)C2)c1 (stereo not drawn) [Compound A-173, 3-[[4-[3-fluoro-5-isobutyl-2-(2H-tetrazol-5-yl)phenyl]-2-methyl-piperazin-1-yl]methyl]pyridazine] |
| < 17.3 µL/min/mg | 20.9% | 26.5% | CC(C)Cc1cc(F)c(-c2nn[nH]n2)c(N2CCN(Cc3cccnn3)[C@@H](C)C2)c1 [Compound A-174, 3-[[(2S)-4-[3-fluoro-5-isobutyl-2-(2H-tetrazol-5-yl)phenyl]-2-methyl-piperazin-1-yl]methyl]pyridazine] |
| 5 µL/min/mg |  |  | CCC1CN(Cc2cccnn2)CCN1c1cc(CC(C)C)cc(F)c1-c1nn[nH]n1 (stereo not drawn) [Compound A-181, 3-[[3-ethyl-4-[3-fluoro-5-isobutyl-2-(2H-tetrazol-5-yl)phenyl]piperazin-1-yl]methyl]pyridazine] |
| 7 µL/min/mg |  |  | CC(C)Cc1cc(F)c(-c2nn[nH]n2)c(N2CC(C)N(Cc3cccnn3)CC2C)c1 (stereo not drawn) [Compound A-183, 3-[[4-[3-fluoro-5-isobutyl-2-(2H-tetrazol-5-yl)phen-yl]-2,5-dimethyl-piperazin-1-yl]-methyl]pyridazine] |

| SMILES | microsomal CLint [1] | inhibition at 10 µM (CYP2C9) | inhibition at 10 µM (CYP2C19) |
| --- | --- | --- | --- |
| CCC1CN(c2cc(CC(C)C)cc(F)c2-c2nn[nH]n2)CCN1Cc1cccnn1 (stereo not drawn) [Compound A-178, 3-[[2-ethyl-4-[3-fluoro-5-isobutyl-2-(2H-tetrazol-5-yl)phenyl]piperazin-1-yl]methyl]pyridazine] | 5 µL/min/mg | 45.6% | 7.77% |
